# Results as given in patent US20130310374A1, “Substituted Imidazoquinoline Derivatives” (PIRAMAL ENTERPRISES LIMITED`, priority 2010, published 2013).
# How the values were obtained:
# AsPC 1 = experiment: Cytotoxicity propidium iodide assay, AsPC 1; type: cell-based; details: Homo sapiens, ASPC1; AsPC 1 (pancreatic), 48 hours treatment; read-out: IC50 Values in μM, C4b
# Protocol: (§1) The assay was designed as in the reference, Anticancer Drugs, 2002, 13, 1-8, the disclosure of which is incorporated herein by reference for the teaching of the assay.
# (§2) Cells from cell lines (ATCC) as mentioned in the table given below were seeded at a density of 3000 cells/well in a white opaque 96-well plate. Following incubation at 37° C./5% CO2 for a period of 18-24 hours, the cells were treated with various concentrations (stock solution was prepared in DMSO and subsequent dilutions were made in media as per ATCC guidelines) of the compounds of the present invention for a period of 48 hours. At the end of treatment, the culture medium was discarded, the cells were washed with 1×PBS and 200 μL of […] propidium iodide was added to each well. […] For analysis, the plates were warmed to RT, allowed to thaw and were read in PoleStar fluorimeter with the fluorescence setting. The percentage of viable cells in the non-treated set of wells was considered to be 100 and the percentage viability following treatment was calculated accordingly. IC50 values were calculated from graphs plotted using these percentages. IC50 values for certain compounds of present invention are depicted in Table 1 and % Inhibition of certain compounds of present invention are depicted in Table 2.
# MCF7 = experiment: Cytotoxicity propidium iodide assay, MCF7; type: cell-based; details: Homo sapiens; MCF7 (breast), 48 hours treatment; read-out: IC50 Values in μM, C3d
# Protocol: as §1
# (§3) Cells from cell lines (ATCC) as mentioned in the table given below were seeded at a density of 3000 cells/well in a white opaque 96-well plate. Following incubation at 37° C./5% CO2 for a period of 18-24 hours, the cells were treated with various concentrations (stock solution was prepared in DMSO and subsequent dilutions were made in media as per ATCC guidelines) of the compounds of the present invention for a period of 48 hours. At the end of treatment, the culture medium was discarded, the cells were washed with 1×PBS and 200 μL of […] propidium iodide was added to each well. The plates were frozen at […] overnight. For analysis, the plates were warmed to RT, allowed to thaw and were read in PoleStar fluorimeter with the fluorescence setting. The percentage of viable cells in the non-treated set of wells was considered to be 100 and the percentage viability following treatment was calculated accordingly. IC50 values were calculated from graphs plotted using these percentages. IC50 values for certain compounds of present invention are depicted in Table 1 and % Inhibition of certain compounds of present invention are depicted in Table 2.
# BT 549 = experiment: Cytotoxicity propidium iodide assay, BT 549; type: cell-based; details: Homo sapiens; BT 549 (breast), 48 hours treatment; read-out: IC50 Values in μM, C3c
# Protocol: as §1, §3
# PC3 = experiment: Cytotoxicity propidium iodide assay, PC3; type: cell-based, human; details: for IC50 / inhibition at 1 µM / inhibition at 10 µM: Homo sapiens, PC-3; for IC50: PC3 (prostate), 48 hours treatment, read-out: IC50 Values in μM, C2a; for inhibition at 1 µM: read-out: % Inhibition at 1 μM, C2a; for inhibition at 10 µM: PC3, 10 μM (stated in cell), read-out: % Inhibition at 10 μM, C2a
# Protocol: as §1, §3
# PANC 1 = experiment: Cytotoxicity propidium iodide assay, PANC 1; type: cell-based; details: Homo sapiens; PANC 1 (pancreatic), 48 hours treatment; read-out: IC50 Values in μM, C4a
# Protocol: as §1, §3
# MDA MB 468 = experiment: Cytotoxicity propidium iodide assay, MDA MB 468; type: cell-based; details: Homo sapiens; MDA MB 468 (breast), 48 hours treatment; read-out: IC50 Values in μM, C3b
# Protocol: as §1, §3
# MDA MB 231 = experiment: Cytotoxicity propidium iodide assay, MDA MB 231; type: cell-based; details: Homo sapiens; MDA MB 231 (breast), 48 hours treatment; read-out: IC50 Values in μM, C3a
# Protocol: as §1, §2
# A2780 = experiment: Cytotoxicity propidium iodide assay, A2780; type: cell-based; details: for IC50 / inhibition at 1 µM / inhibition at 10 µM: Homo sapiens; for IC50: A2780 (ovarian), 48 hours treatment, read-out: IC50 Values in μM, C1a; for inhibition at 1 µM: read-out: % Inhibition at 1 μM, C1a; for inhibition at 10 µM: A2780, 10 μM (stated in cell), read-out: % Inhibition at 10 μM, C1a
# Protocol: as §1, §3
# BxPC3 = experiment: Cytotoxicity propidium iodide assay, BxPC3; type: cell-based; details: Homo sapiens, BXPC-3; BxPC3 (pancreatic), 48 hours treatment; read-out: IC50 Values in μM, C4c
# Protocol: as §1, §3
# K562 = experiment: Cytotoxicity propidium iodide assay, K562; type: cell-based; details: Homo sapiens; K562 (CML), 48 hours treatment; read-out: IC50 Values in μM, C6a
# Protocol: as §1, §3
Compound,IC50 (MCF7) [µM],IC50 (BT 549) [µM],IC50 (PC3) [µM],IC50 (A2780) [µM],"inhibition at 1 µM (PC3; PC3, 1 μM, 48 hours) [%]","inhibition at 1 µM (A2780; A2780, 1 μM, 48 hours) [%]",further results
"Cn1c(=O)n(-c2ccc3ncccc3c2)c2c3cc(-c4cnc(N)c(C(F)(F)F)c4)ccc3ncc21 [Example 67, 8-(6-Amino-5-(trifluoromethyl)pyridin-3-yl)-3-methyl-1-(quinolin-6-yl)-1H-imidazo[4,5-c]quinolin-2 (3H)-one]",0.02,0.011,0.015,0.006,,,IC50 (AsPC 1): 0.035 µM; IC50 (PANC 1): 0.025 µM; IC50 (MDA MB 468): 0.05 µM; IC50 (MDA MB 231): 0.012 µM; IC50 (BxPC3): 0.0085 µM
"Cn1c(=O)n(CCN2CCOCC2)c2c3cc(-c4cccnc4)ccc3ncc21 [Example 68, 3-Methyl-1-(2-morpholinoethyl)-8-(pyridin-3-yl)-1H-imidazo[4,5-c]quinolin-2(3H)-one]",3,> 10,2.4,1.4,,,IC50 (AsPC 1): 4.6 µM; IC50 (PANC 1): 4.6 µM; IC50 (MDA MB 468): 7 µM; IC50 (MDA MB 231): 2.3 µM; IC50 (BxPC3): 2.4 µM
"CC(C)(C#N)c1ccc(-n2c(=O)n(CC#N)c3cnc4ccc(-c5cnc6ccccc6c5)cc4c32)cn1 [Example 17, 2-(5-(3-(Cyanomethyl)-2-oxo-8-(quinolin-3-yl)-2,3-dihydro-1H-imidazo[4,5-c]quinolin-1-yl)pyridin-2-yl)-2-methylpropanenitrile]",0.25,0.37,0.17,0.065,,,IC50 (AsPC 1): 0.24 µM; IC50 (PANC 1): 0.23 µM; IC50 (MDA MB 468): 0.45 µM; IC50 (MDA MB 231): 0.17 µM; IC50 (BxPC3): 0.085 µM
"Cn1c(=O)n(-c2ccc(Cl)nc2C(F)(F)F)c2c3cc(-c4cccnc4)ccc3ncc21 [Example 63, 1-(6-Chloro-2-(trifluoromethyl)pyridin-3-yl)-3-methyl-8-(pyridin-3-yl)-1H-imidazo[4,5-c]quinolin-2 (3H)-one]",4,5.6,,,53,88,IC50 (K562): 0.224 µM
"6-Chloro-5-(3-methyl-2-oxo-8-(quinolin-3-yl)-2,3-dihydro-1H-imidazo[4,5-c]quinolin-1-yl)picolinonitrile [Example 58]",,,,,,,"% Inhibition at 1 μM, C2a (PC3; PC3, 1 μM, 48 hours): 60%; % Inhibition at 1 μM, C1a (A2780; A2780, 1 μM, 48 hours): 91%"
"COc1ccc(-n2c(=O)n(C)c3cnc4ccc(-c5cncc(C(F)(F)F)c5)cc4c32)c(C)n1 [Example 39, 1-(6-Methoxy-2-methylpyridin-3-yl)-3-methyl-8-(5-(trifluoromethyl)pyridin-3-yl)-1H-imidazo[4,5-c]quinolin-2(3H)-one]",,,,,68.8,83.4,
"Cn1c(=O)n(-c2ccc(C#N)nc2)c2c3cc(-c4cccnc4)ccc3ncc21 [Example 49, 5-(3-Methyl-2-oxo-8-(pyridin-3-yl)-2,3-dihydro-1H-imidazo[4,5-c]quinolin-1-yl)picolinonitrile]",0.03,0.3,0.017,0.009,,,IC50 (AsPC 1): 0.025 µM; IC50 (PANC 1): 0.035 µM; IC50 (MDA MB 468): 0.065 µM; IC50 (MDA MB 231): 0.016 µM; IC50 (BxPC3): 0.04 µM
"CC(C)(C#N)c1ccc(-n2c(=O)n(CC#N)c3cnc4ccc(-c5cccnc5)cc4c32)cn1 [Example 14, 2-(5-(3-(Cyanomethyl)-2-oxo-8-(pyridin-3-yl)-2,3-dihydro-1H-imidazo[4,5-c]quinolin-1-yl)pyridin-2-yl)-2-methylpropanenitrile]",,,0.42,0.4,,,
"CCOc1ccc(-n2c(=O)n(C)c3cnc4ccc(-c5cnc(N)c(C(F)(F)F)c5)cc4c32)cn1 [Example 30, 8-(6-Amino-5-(trifluoromethyl)pyridin-3-yl)-1-(6-ethoxypyridin-3-yl)-3-methyl-1H-imidazo[4,5-c]quinolin-2(3H)-one]",,,,,71,94,
"N#CCn1c(=O)n(-c2ccc(C#N)nc2)c2c3cc(-c4cccnc4)ccc3ncc21 [Example 42, 5-(3-(Cyanomethyl)-2-oxo-8-(pyridin-3-yl)-2,3-dihydro-1H-imidazo[4,5-c]quinolin-1-yl)picolinonitrile]",,,,,60 to 80,60 to 80,
"COc1ccc(-n2c(=O)n(CC#N)c3cnc4ccc(-c5cnc6ccccc6c5)cc4c32)cn1 [Example 24, 2-(1-(6-Methoxypyridin-3-yl)-2-oxo-8-(quinolin-3-yl)-1H-imidazo[4,5-c]quinolin-3(2H)-yl)acetonitrile]",,,,,39,66,
"Cn1c(=O)n(-c2ccc(C(F)(F)F)nc2)c2c3cc(-c4cnc5ccccc5c4)ccc3ncc21 [Example 54, 3-Methyl-8-(quinolin-3-yl)-1-(6-(trifluoromethyl)pyridin-3-yl)-1H-imidazo[4,5-c]quinolin-2(3H)-one]",0.8,1,0.55,0.16,,,IC50 (AsPC 1): 0.55 µM; IC50 (PANC 1): 0.95 µM; IC50 (MDA MB 468): 1.2 µM; IC50 (MDA MB 231): 0.55 µM; IC50 (BxPC3): 0.78 µM
"COc1ccc(-n2c(=O)n(C)c3cnc4ccc(-c5ccc(N(C)C)nc5)cc4c32)cn1 [Example 25, 8-(6-(Dimethylamino)pyridin-3-yl)-1-(6-methoxypyridin-3-yl)-3-methyl-1H-imidazo[4,5-c] quinolin-2(3H)-one]",,,,,69,83.4,
"Cn1c(=O)n(-c2ccc(C#N)nc2)c2c3cc(-c4cccnc4F)ccc3ncc21 [Example 46, 5-(8-(2-Fluoropyridin-3-yl)-3-methyl-2-oxo-2,3-dihydro-1H-imidazo[4,5-c]quinolin-1-yl)picolinonitrile]",,,,,27,34,
"Cn1c(=O)n(-c2ccc(C#N)nc2)c2c3cc(-c4ccc(F)nc4)ccc3ncc21 [Example 47, 5-(8-(6-Fluoropyridin-3-yl)-3-methyl-2-oxo-2,3-dihydro-1H-imidazo[4,5-c]quinolin-1-yl)picolinonitrile]",,,,,,,inhibition at 10 µM (PC3; 48 hours): 40 to 60%; inhibition at 10 µM (A2780; 48 hours): 40 to 60%
"Cn1c(=O)n(-c2ccc(C(C)(C)C#N)nc2)c2c3cc(-c4cncc(C(F)(F)F)c4)ccc3ncc21 [Example 4, 2-Methyl-2-(5-(3-methyl-2-oxo-8-(5-(trifluoromethyl)pyridin-3-yl)-2,3-dihydro-1H-imidazo[4,5-c]quinolin-1-yl)pyridin-2-yl)propanenitrile]",,,,,72.6,89.2,
"COc1ccc(-n2c(=O)n(C)c3cnc4ccc(-c5cnc(N)c(C(F)(F)F)c5)cc4c32)c(C)n1 [Example 38, 8-(6-Amino-5-(trifluoromethyl)pyridin-3-yl)-1-(6-methoxy-2-methylpyridin-3-yl)-3-methyl-1H-imidazo[4,5-c]quinolin-2(3H)-one]",,,0.0078,< 0.005,,,
"Cn1c(=O)n(-c2ccc(Cl)nc2)c2c3cc(-c4cccnc4)ccc3ncc21 [Example 60, 1-(6-Chloropyridin-3-yl)-3-methyl-8-(pyridin-3-yl)-1H-imidazo[4,5-c]quinolin-2(3H)-one]",,,0.85,0.68,,,
"COc1ccc(-c2ccc3ncc4c(c3c2)n(-c2ccc(C#N)nc2)c(=O)n4C)cn1 [Example 48, 5-(8-(6-Methoxypyridin-3-yl)-3-methyl-2-oxo-2,3-dihydro-1H-imidazo[4,5-c]quinolin-1-yl)picolinonitrile]",,,,,,,inhibition at 10 µM (PC3; 48 hours): 40 to 60%; inhibition at 10 µM (A2780; 48 hours): 40 to 60%
